Results on one compound are retold here after the NIST ThermoML archive (doi:10.1016/j.jct.2019.06.018).

Numbers after ± are expanded uncertainties.

Data set [1] in a line: Molar enthalpy of transition or fusion. The following applies: Crystal; DSC.
The conditions of data set [2]: Crystal; DSC.

As for `CC1=NN(c2ccccc2)C(=O)C1` [Edaravone], the “Molar enthalpy of transition or fusion” value in data set [1] came out at 7.08 ± 0.956 kcal/mol. The Triple point temperature in data set [2] turned out to be 400.15 ± 1.2 K.
